# Test results from PubChem BioAssay (NCI).
#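 Tested at 5 concentrations; 48 h exposure; 96-well plates; endpoints linearly interpolated, else capped at highest concentration. Here, GI50 denotes the concentration required for 50% inhibition of growth. TGI denotes the concentration required for complete inhibition of growth.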
# Assays:
# Assay in all cases: inhibition of tumour cell growth, NCI panel, 48 h
# [1] = system: 786-0 renal
# [2] = system: DU-145 prostate
# [3] = system: HL-60(TB) leukemia
# [4] = system: HOP-92 NSCLC
# [5] = system: K-562 leukemia
# [6] = system: M14 melanoma
# [7] = system: MCF7 breast
# [8] = system: SK-MEL-5 melanoma
# [9] = system: SK-OV-3 ovarian
# [10] = system: SNB-19 CNS
SMILES,GI50 [1],TGI [1],GI50 [2],TGI [2],GI50 [3],TGI [3],GI50 [4],TGI [4],GI50 [5],TGI [5],GI50 [6],TGI [6],GI50 [7],TGI [7],GI50 [8],TGI [8],GI50 [9],TGI [9],GI50 [10],TGI [10]
CN(C)CCNc1c2c(c(NCCN(C)C)c3c(CO)c[nH]c13)C(=O)c1ccccc1C2=O,3.38 µM,16.2 µM,2.17 µM,12.7 µM,29.9 µM,> 100 µM,2.89 µM,13.1 µM,3.47 µM,> 100 µM,2.04 µM,4.57 µM,1.97 µM,> 34.1 µM,1.81 µM,4.67 µM,4.64 µM,20.8 µM,6.09 µM,22.3 µM
CC(=O)O[C@H](C[C@H](C(C)C)N(C)C(=O)[C@@H](NC(=O)[C@H]1CCCCN1C)C(C)(C)C)c1nc(C(=O)N[C@@H](Cc2ccccc2)C[C@H](C)C(=O)O)cs1,< 0.0025 µM,> 25 µM,< 0.0025 µM,,< 0.0025 µM,< 0.0025 µM,< 0.0025 µM,0.297 µM,< 0.0025 µM,> 25 µM,< 0.0025 µM,,< 0.0025 µM,> 25 µM,< 0.0025 µM,0.0057 µM,< 0.0025 µM,> 25 µM,< 0.0025 µM,> 25 µM
FC(F)(F)c1cc(NC2=NCCN=C(Nc3cc(C(F)(F)F)cc(C(F)(F)F)c3)SS2)cc(C(F)(F)F)c1,5.26 µM,17.7 µM,6.24 µM,18.9 µM,3.27 µM,15.8 µM,1.52 µM,5.01 µM,3.58 µM,17.6 µM,6.87 µM,26.6 µM,2.9 µM,12.6 µM,3.2 µM,11.9 µM,8.63 µM,54.3 µM,4.08 µM,15.4 µM
Cc1cc(S(=O)(=O)Nc2nc3cc(-c4ccsc4)sc3c(=O)n2N)c(S)cc1Cl,90.9 µM,> 100 µM,> 100 µM,> 100 µM,> 100 µM,> 100 µM,> 100 µM,> 100 µM,52 µM,> 100 µM,> 100 µM,> 100 µM,46.9 µM,> 100 µM,38.4 µM,> 100 µM,88.6 µM,> 100 µM,86 µM,> 100 µM
N#CC1CCc2c(c(-c3cn[nH]c3C(F)(F)F)nc3c(F)cc4[nH]ncc4c23)C1 (stereo not drawn),10.9 µM,59.4 µM,9.06 µM,80.3 µM,2.56 µM,16.9 µM,4.42 µM,26.5 µM,9.53 µM,> 100 µM,3.88 µM,21.7 µM,3.5 µM,47.4 µM,2.83 µM,9.79 µM,3.21 µM,10.5 µM,5.53 µM,61.5 µM
C(#Cc1ccccc1C#Cc1ccccn1)c1ccccn1,18.3 µM,> 100 µM,19.8 µM,38 µM,3.92 µM,17.7 µM,1.96 µM,12.2 µM,7.02 µM,27.1 µM,22.1 µM,> 100 µM,14.3 µM,38.2 µM,15.5 µM,30.9 µM,16.5 µM,37.9 µM,18 µM,39.3 µM
CC(=O)Nc1cc2cc(NS(=O)(=O)c3cc(C(F)(F)F)cc(C(F)(F)F)c3)ccc2oc1=O,,> 100 µM,,> 100 µM,,> 100 µM,,> 100 µM,,> 100 µM,,> 100 µM,,> 100 µM,,> 100 µM,,,,> 100 µM
C=C(C)[C@@H]1CC[C@]2(C)[C@H](CC=C3[C@@H]4[C@H](C)[C@@H](C)CC[C@]4(CO)CC[C@]32C)[C@@]1(C)CCCN,0.841 µM,1.58 µM,1.21 µM,3.01 µM,1.03 µM,2.27 µM,1.04 µM,3.46 µM,1.22 µM,3.63 µM,0.846 µM,1.76 µM,,,0.91 µM,1.65 µM,4.42 µM,12 µM,2.11 µM,8.11 µM
Cc1nn2c(/C=C3\C(=O)Nc4ccccc43)c(C)nc2s1,40.4 µM,> 100 µM,75.8 µM,> 100 µM,21 µM,> 100 µM,61 µM,> 100 µM,6.71 µM,> 100 µM,12.3 µM,> 100 µM,7.46 µM,> 100 µM,16.5 µM,> 100 µM,34.8 µM,> 100 µM,45.7 µM,> 100 µM
NC(=S)N/N=C\c1nccc2c(C(F)(F)C(F)(F)C(F)(F)F)cccc12,0.26 µM,0.978 µM,0.11 µM,2.92 µM,0.0649 µM,0.665 µM,0.116 µM,1.44 µM,0.346 µM,> 100 µM,0.0662 µM,0.589 µM,0.0515 µM,7.54 µM,0.0996 µM,0.563 µM,0.0466 µM,1.43 µM,0.196 µM,5.21 µM
O=C(O)c1cc2c(c3ccsc13)-c1ccccc1CC2,49.7 µM,> 100 µM,44.2 µM,> 100 µM,37.5 µM,> 100 µM,30.3 µM,> 100 µM,40.6 µM,> 100 µM,42.2 µM,> 100 µM,42 µM,> 100 µM,31.3 µM,> 100 µM,85.1 µM,> 100 µM,47 µM,> 100 µM
CCCNc1cccc(-n2ncc3c(N/N=C/c4ccncc4)ncnc32)c1,> 25 µM,> 25 µM,> 25 µM,> 25 µM,,,9.32 µM,> 25 µM,1.12 µM,> 25 µM,1.69 µM,> 25 µM,> 5.61 µM,> 25 µM,1.64 µM,> 25 µM,6.92 µM,> 25 µM,> 25 µM,> 25 µM
C=C1C(=O)O[C@H]2[C@H]1CC/C(COC(=O)/C=C/c1c[nH]c3ccccc13)=C\CC[C@@]1(C)O[C@@H]21,0.221 µM,0.555 µM,0.393 µM,1.43 µM,0.256 µM,0.717 µM,0.156 µM,0.369 µM,0.273 µM,> 100 µM,0.221 µM,0.572 µM,0.226 µM,1.01 µM,0.208 µM,0.516 µM,1.88 µM,3.59 µM,,
Cc1cc(O)c2c(c1)C(=O)C(c1c(C)cc3c(c1O)C(=O)C1OC1C3=O)=CC2=O (stereo not drawn),,4.16 µM,,> 47.3 µM,,0.0151 µM,,2.11 µM,,,,8.12 µM,,12.1 µM,,19.7 µM,,38.7 µM,,> 50.7 µM
CCC(=O)OC1=CN2C(=NC(c3ccc(N)cc3)=CC2c2cc(OC)c(OC)c(OC)c2)S1 (stereo not drawn),4.57 µM,23.4 µM,3.58 µM,13.1 µM,3.01 µM,> 100 µM,1.76 µM,7.37 µM,3.47 µM,> 100 µM,4.18 µM,17.6 µM,2.86 µM,14.4 µM,2.89 µM,12 µM,3.45 µM,13 µM,3.59 µM,16.4 µM
CC(=O)NS(=O)(=O)c1ccc(-n2nc(-c3ccccc3)cc2C2=CC(=O)C=CC2=O)cc1,54.4 µM,> 100 µM,,,> 100 µM,> 100 µM,> 100 µM,> 100 µM,57 µM,> 100 µM,> 100 µM,> 100 µM,> 100 µM,> 100 µM,44.2 µM,> 100 µM,,,> 100 µM,> 100 µM
O=C(O)c1ccc2cccnc2c1O,2.4 µM,24.8 µM,0.828 µM,42.3 µM,1.89 µM,6.43 µM,0.832 µM,2.74 µM,0.896 µM,> 100 µM,1.53 µM,26.6 µM,1.5 µM,> 100 µM,,,1.7 µM,4.89 µM,1.48 µM,> 100 µM
N#Cc1c(NCc2ccccc2)nc(NCc2ccccc2)c(C#N)c1-c1cccc(O)c1,13 µM,27.6 µM,12.8 µM,34.4 µM,,,2.51 µM,18.9 µM,,,6.65 µM,> 100 µM,12.7 µM,88.4 µM,,,7.79 µM,46.5 µM,17.1 µM,> 100 µM
Cc1ccc(/C=C2\CN(Cc3cn(CCNc4ccnc5cc(Cl)ccc45)nn3)C/C(=C\c3ccc(C)cc3)C2=O)cc1,1.85 µM,3.36 µM,1.76 µM,3.17 µM,2.23 µM,5.26 µM,1.45 µM,3.01 µM,,,2.2 µM,4.62 µM,1.62 µM,3.46 µM,1.7 µM,3.12 µM,1.9 µM,3.57 µM,1.82 µM,3.43 µM
c1ccc(-c2cnc3nc4ccccc4nc3n2)cc1,,> 100 µM,,19.6 µM,,> 100 µM,,,,> 100 µM,,25.6 µM,,4.71 µM,,12.3 µM,,9.12 µM,,32.7 µM
C[C@]12CC[C@H]3[C@@H](CCC4=C[C@@H](OC5OCC(OC6OC(CO)C(O)C(O)C6O)C(O)C5O)CC[C@@]43C=O)[C@@]1(O)CCC2C1=CC(=O)OC1 (stereo partly drawn),,1.23 µM,,1.44 µM,,0.646 µM,,5.13 µM,,3.38 µM,,2.79 µM,,> 100 µM,,,,3.75 µM,,11.9 µM
O=C(Nc1ccccc1C(=O)Nc1nccs1)c1ccccc1,,> 100 µM,,> 100 µM,,> 100 µM,,,,> 100 µM,,> 100 µM,,> 100 µM,,67.3 µM,,> 100 µM,,> 100 µM
N=C1C(c2nc(-c3ccc(Br)cc3)cs2)=C(O)CN1CC1CCCO1 (stereo not drawn),> 100 µM,> 100 µM,,,> 100 µM,> 100 µM,> 100 µM,> 100 µM,> 100 µM,> 100 µM,,,> 100 µM,> 100 µM,> 100 µM,> 100 µM,> 100 µM,> 100 µM,> 100 µM,> 100 µM
O=c1oc2cc(OS(=O)(=O)c3ccccc3)ccc2c2c1CCCCC2,6.24 µM,> 100 µM,> 100 µM,> 100 µM,2.05 µM,8.54 µM,,,4.06 µM,> 100 µM,8.8 µM,> 100 µM,5.14 µM,> 100 µM,2.88 µM,> 100 µM,> 100 µM,> 100 µM,> 100 µM,> 100 µM
CNC(C)Cc1ccc(O)cc1 (stereo not drawn),,> 100 µM,,,,> 100 µM,,> 100 µM,,> 100 µM,,> 100 µM,,,,> 100 µM,,> 100 µM,,> 100 µM
COc1cc(CNC(=O)CCSc2nc3ccccc3c(=O)n2Cc2cc(OC)c(OC)c(OC)c2)cc(OC)c1OC,5.1 µM,29 µM,7.27 µM,> 100 µM,3.57 µM,> 100 µM,5.7 µM,23.9 µM,,,2.23 µM,5.8 µM,3.46 µM,> 100 µM,2.85 µM,13.7 µM,5.34 µM,18.6 µM,6 µM,> 100 µM
COc1ccc(/C=C/c2cnc3ccccc3n2)cc1OC,,> 100 µM,,> 100 µM,,> 100 µM,,> 100 µM,,> 100 µM,,> 100 µM,,> 100 µM,,> 100 µM,,> 100 µM,,
COC(=O)C12C3C4C1C1C2C3C41C(=O)N(C(C)C)C(C)C (stereo not drawn),,> 100 µM,,,,> 100 µM,,> 100 µM,,> 100 µM,,> 100 µM,,,,> 100 µM,,> 100 µM,,> 100 µM
N#Cc1ccc2c(c1)C(=O)c1c-2n(CCCN=[N+]=[N-])c(=O)c2cc([N+](=O)[O-])ccc12,23 µM,> 50 µM,7.16 µM,> 50 µM,> 50 µM,> 50 µM,5.55 µM,40.1 µM,,,29.9 µM,> 50 µM,1.35 µM,> 50 µM,> 50 µM,> 50 µM,> 50 µM,> 50 µM,33 µM,> 50 µM
